Results: ChEMBL document CHEMBL1201862, “PubChem BioAssay data set” (2004)
Counter-ions that a name gives are not always drawn.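 Compound exposure: 48 hours, 5 concentrations, 96-well plates. Abbreviation: GI50, concentration required for 50% inhibition of growth.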 Calls of active or inactive are those of the source. Cut-off read from the data, not from the text of the source: active = GI50 up to about 1.1 µM and inactive = higher.

Columns and labels:
Assay in all cases: NCI-60 cell line screen, 48 h
DMS-114 = tested on: DMS-114
DMS-273 = tested on: DMS-273
KM-20L2 = tested on: KM-20L2
LXFL 529 = tested on: LXFL 529
M19-MEL = tested on: M19-MEL
SNB-78 = tested on: SNB-78
XF498 = tested on: XF498
DLD-1 = tested on: DLD-1
RXF 631 = tested on: RXF 631

With `O=C1CCC(=O)N1Cc1ccccc1/N=[N+](\[O-])c1ccccc1CN1C(=O)CCC1=O` the GI50 (DMS-114) was > 100 µM (inactive), the GI50 (DMS-273) was > 100 µM (inactive) and the GI50 (KM-20L2) was > 100 µM (inactive). The GI50 (LXFL 529) was > 100 µM (inactive), the GI50 (M19-MEL) was > 100 µM (inactive) and the GI50 (SNB-78) was > 100 µM (inactive). The GI50 (XF498) was > 100 µM (inactive).
`NCCSSCCN` [CYSTAMINE HYDROCHLORIDE] was tested, and the GI50 (DLD-1) was > 100 µM (inactive), the GI50 (DMS-114) was > 100 µM (inactive) and the GI50 (DMS-273) was > 100 µM (inactive). For the same compound, the GI50 (KM-20L2) was > 100 µM (inactive), the GI50 (LXFL 529) was > 100 µM (inactive) and the GI50 (M19-MEL) was > 100 µM (inactive). The GI50 (RXF 631) was > 100 µM (inactive), the GI50 (SNB-78) was > 100 µM (inactive) and the GI50 (XF498) was > 100 µM (inactive).
`NCCOCCOCC(=O)O` was tested, and the GI50 (DMS-114) was > 100 µM (inactive), the GI50 (DMS-273) was > 100 µM (inactive) and the GI50 (KM-20L2) was > 100 µM (inactive). For the same compound, the GI50 (LXFL 529) was > 100 µM (inactive), the GI50 (M19-MEL) was > 100 µM (inactive) and the GI50 (SNB-78) was > 100 µM (inactive).
For `O=C(CO)CC(=O)C(=O)Nc1ccccc1`, the GI50 (DLD-1) was > 100 µM (inactive), the GI50 (DMS-114) was > 100 µM (inactive) and the GI50 (DMS-273) was > 100 µM (inactive). For the same compound, the GI50 (KM-20L2) was > 100 µM (inactive), the GI50 (LXFL 529) was > 100 µM (inactive) and the GI50 (M19-MEL) was > 100 µM (inactive). The GI50 (RXF 631) was 46 µM (inactive) and the GI50 (SNB-78) was > 100 µM (inactive).
For `CSc1nc(C)cc(=O)n1C1OC(COC(C)=O)C(OC(C)=O)C(OC(C)=O)C1OC(C)=O` (configuration not stated), the GI50 (DLD-1) was > 100 µM (inactive), the GI50 (DMS-114) was > 100 µM (inactive) and the GI50 (DMS-273) was > 100 µM (inactive). For the same compound, the GI50 (KM-20L2) was > 100 µM (inactive), the GI50 (LXFL 529) was > 100 µM (inactive) and the GI50 (M19-MEL) was > 100 µM (inactive). For the same compound, the GI50 (XF498) was > 100 µM (inactive).
For `COc1ccc(C[P+]2(c3ccccc3)CCCCC2)cc1.O=[N+]([O-])c1ccc(C[P+]2(c3ccccc3)CCCCC2)cc1.[O-][Cl+3]([O-])([O-])[O-].[O-][Cl+3]([O-])([O-])[O-]`, the GI50 (DLD-1) was > 100 µM (inactive), the GI50 (DMS-114) was 36.1 µM (inactive) and the GI50 (DMS-273) was 60 µM (inactive). The GI50 (LXFL 529) was 16.4 µM (inactive), the GI50 (RXF 631) was > 100 µM (inactive) and the GI50 (XF498) was > 100 µM (inactive).
`C=CCCC(O)c1cc(C)c(O)c(C)c1` (configuration not stated) was tested, and the GI50 (DMS-114) was > 100 µM (inactive), the GI50 (KM-20L2) was > 100 µM (inactive) and the GI50 (LXFL 529) was > 100 µM (inactive). For the same compound, the GI50 (M19-MEL) was > 100 µM (inactive) and the GI50 (SNB-78) was > 100 µM (inactive).
For `C[C@]12CC=CC(=O)[C@@]1(C)CCC(=O)C2`, the GI50 (DLD-1) was > 100 µM (inactive), the GI50 (DMS-114) was > 100 µM (inactive) and the GI50 (DMS-273) was > 100 µM (inactive). The GI50 (LXFL 529) was > 100 µM (inactive), the GI50 (M19-MEL) was > 100 µM (inactive) and the GI50 (RXF 631) was > 100 µM (inactive). For the same compound, the GI50 (SNB-78) was > 100 µM (inactive) and the GI50 (XF498) was 75.7 µM (inactive).
`O=[N+]([O-])c1cc(Cl)ccc1S(=O)(=O)c1ccc(Cl)cc1[N+](=O)[O-]` was tested, and the GI50 (DLD-1) was 15.6 µM (inactive), the GI50 (DMS-114) was 11.3 µM (inactive) and the GI50 (DMS-273) was 14.2 µM (inactive). The GI50 (KM-20L2) was 16.7 µM (inactive), the GI50 (LXFL 529) was 14.1 µM (inactive) and the GI50 (M19-MEL) was 15 µM (inactive). The GI50 (SNB-78) was 16.1 µM (inactive).
With `COc1cc2c(cc1O)CC13CCC(=O)N1CCc1cc(OC)c(O)c-2c13` (configuration not stated) the GI50 (DLD-1) was > 68.1 µM (inactive), the GI50 (DMS-114) was > 68.1 µM (inactive) and the GI50 (KM-20L2) was > 68.1 µM (inactive). For the same compound, the GI50 (LXFL 529) was > 68.1 µM (inactive), the GI50 (M19-MEL) was > 68.1 µM (inactive) and the GI50 (RXF 631) was 39.9 µM (inactive). The GI50 (SNB-78) was > 68.1 µM (inactive).
In the case of `Clc1ccc2c(c1)C1C(CO2)C(c2ccccc2)=NN1c1ccccc1` (configuration not stated), the GI50 (DLD-1) is reported as 35.1 µM (inactive), the GI50 (DMS-114) is reported as 24.6 µM (inactive) and the GI50 (DMS-273) is reported as 28.7 µM (inactive). The GI50 (KM-20L2) was 79.6 µM (inactive), the GI50 (LXFL 529) was 29.6 µM (inactive) and the GI50 (M19-MEL) was 26.5 µM (inactive). The GI50 (SNB-78) was 29.9 µM (inactive) and the GI50 (XF498) was 14.9 µM (inactive).
`O=c1/c(=C/c2ccc3c(c2)OCO3)sc2nnc(-c3ccco3)n12` was tested, and the GI50 (DLD-1) was > 100 µM (inactive), the GI50 (DMS-114) was > 100 µM (inactive) and the GI50 (DMS-273) was > 100 µM (inactive). For the same compound, the GI50 (KM-20L2) was > 100 µM (inactive), the GI50 (LXFL 529) was > 100 µM (inactive) and the GI50 (M19-MEL) was > 100 µM (inactive). The GI50 (SNB-78) was > 100 µM (inactive) and the GI50 (XF498) was > 100 µM (inactive).
With `Cc1n(-c2ccccc2)c2c([n+]1Cc1ccc([N+](=O)[O-])cc1)C(=O)c1ccccc1C2=O` the GI50 (DLD-1) was 5.43 µM (inactive), the GI50 (DMS-114) was 0.386 µM (active) and the GI50 (DMS-273) was 1.92 µM (inactive). The GI50 (KM-20L2) was 3.23 µM (inactive), the GI50 (LXFL 529) was 1.42 µM (inactive) and the GI50 (M19-MEL) was 1.16 µM (inactive). For the same compound, the GI50 (SNB-78) was 2.88 µM (inactive).
With `Cc1nnc(N/N=C(/C(=O)C(C#N)c2ccc(Cl)cc2)C(C#N)c2ccc(Cl)cc2)n1N` (configuration not stated) the GI50 (DLD-1) was 20.1 µM (inactive), the GI50 (DMS-114) was 15.7 µM (inactive) and the GI50 (DMS-273) was 19 µM (inactive). The GI50 (KM-20L2) was 20.3 µM (inactive), the GI50 (LXFL 529) was 13.4 µM (inactive) and the GI50 (RXF 631) was 19.8 µM (inactive). For the same compound, the GI50 (SNB-78) was 24.1 µM (inactive) and the GI50 (XF498) was 28.8 µM (inactive).
With `C=C(C)C1CC2C(C)=C(OC(C)=O)C1n1c(=O)c3cc4ccccc4cc3c(=O)n12` (configuration not stated) the GI50 (DLD-1) was 53.1 µM (inactive), the GI50 (DMS-114) was 65.8 µM (inactive) and the GI50 (DMS-273) was 54.2 µM (inactive). The GI50 (KM-20L2) was > 93.5 µM (inactive), the GI50 (LXFL 529) was 69.7 µM (inactive) and the GI50 (M19-MEL) was 74 µM (inactive). For the same compound, the GI50 (SNB-78) was 95.9 µM (inactive).
In the case of `O=C1C2Cc3ccccc3CN2C(=O)N1CCN1CCCC1` (configuration not stated), the GI50 (DLD-1) is reported as > 100 µM (inactive), the GI50 (DMS-114) is reported as > 100 µM (inactive) and the GI50 (DMS-273) is reported as > 100 µM (inactive). The GI50 (KM-20L2) was > 100 µM (inactive), the GI50 (LXFL 529) was > 100 µM (inactive) and the GI50 (M19-MEL) was > 100 µM (inactive). For the same compound, the GI50 (RXF 631) was > 100 µM (inactive) and the GI50 (XF498) was > 100 µM (inactive).
With `COc1ccc(/C=C/CO)cc1OC` the GI50 (DMS-114) was > 100 µM (inactive), the GI50 (DMS-273) was > 100 µM (inactive) and the GI50 (KM-20L2) was > 100 µM (inactive). For the same compound, the GI50 (LXFL 529) was > 100 µM (inactive), the GI50 (M19-MEL) was > 100 µM (inactive) and the GI50 (SNB-78) was > 100 µM (inactive).
With `Brc1ccc(-c2nnc(-c3nn(-c4ccccc4)c4nc5ccccc5nc34)o2)cc1` the GI50 (DLD-1) was > 100 µM (inactive), the GI50 (DMS-114) was 26.7 µM (inactive) and the GI50 (DMS-273) was 81.3 µM (inactive). For the same compound, the GI50 (KM-20L2) was > 100 µM (inactive), the GI50 (LXFL 529) was 31.5 µM (inactive) and the GI50 (RXF 631) was > 100 µM (inactive). The GI50 (SNB-78) was > 100 µM (inactive).
`COc1cc(/C=C/C(=N\NC(=O)c2ccccc2)c2sc(Nc3ccc(Cl)c(Cl)c3)nc2C)ccc1O` was tested, and the GI50 (DLD-1) was 28.7 µM (inactive), the GI50 (DMS-114) was 23.8 µM (inactive) and the GI50 (KM-20L2) was 33.4 µM (inactive). The GI50 (LXFL 529) was 31.6 µM (inactive), the GI50 (M19-MEL) was 28.2 µM (inactive) and the GI50 (RXF 631) was 20.6 µM (inactive). The GI50 (SNB-78) was 29.3 µM (inactive) and the GI50 (XF498) was 32.9 µM (inactive).
With `CCOC(=O)C1(C)CCC(C(=O)OC)C1=O` (configuration not stated) the GI50 (DLD-1) was 57.4 µM (inactive), the GI50 (DMS-114) was 19.8 µM (inactive) and the GI50 (KM-20L2) was > 100 µM (inactive). For the same compound, the GI50 (LXFL 529) was > 100 µM (inactive), the GI50 (M19-MEL) was 73.3 µM (inactive) and the GI50 (SNB-78) was > 100 µM (inactive). The GI50 (XF498) was > 100 µM (inactive).
With `CCCCCCCCCCCCCC(=O)OC(/C=C/C(C)C)C(O)C(O)C(OC)C(=O)NC1CCCCN(C)C1=O` (configuration not stated) the GI50 (DLD-1) was 1.56 µM (inactive), the GI50 (DMS-114) was 1.2 µM (inactive) and the GI50 (DMS-273) was 0.817 µM (active). For the same compound, the GI50 (KM-20L2) was 2.94 µM (inactive), the GI50 (LXFL 529) was 2.97 µM (inactive) and the GI50 (M19-MEL) was 3.48 µM (inactive). The GI50 (RXF 631) was 1.18 µM (inactive) and the GI50 (SNB-78) was 4.8 µM (inactive).
